Source: patent EP0155244A2, “1-Ethyl-6-fluoro-7-(1H-pirrol-1-yl)-1,4-dihydro-4-oxoquinoline-3-carboxylic acid: preparation and antimicrobial activities” (priority 1985, dated 1985)
Converted amounts (≈) assume the structure as drawn. Where two headings read alike, the source gives them in different places.

Legend:
Escherichia coli = test: In vitro antibacterial activity, M.I.C. by serial twofold dilution method on Mueller-Hinton agar; assay type: cell-based; conditions: E.Coli, 20 strains, pH 7.2, reading 18 h after incubation at 37°C; for MIC: Escherichia coli, read-out: nX̄ = MIC mean values of sensitive strains
Description: (§1) Derivatives (1) and (9) were tested for the in vitro antibacterial activities against Gram-positive and Gram-negative bacteria.Nalidixic acid,pipemidic acid,- piromidic acid and enoxacin were used as positive controls for antibacterial activities.
(§2) Minimum inhibitory concentrations (M.I.C.s) were determined using the serial twolfold dilution method; lectures were performed after incubation at 37° for 18 hours.
(§3) For the experiments the substances were dissolved in NaOH 0.1 N(10 mg/ml);further dilutions in the test medium furnished the required concentrations, generally in the range from 0. 05µg/ml to 100 µg/ml.
(§4) The cultures were obtained on B.H.I. (B.B.L.) after 18 hours incubation at 37°.Tests were carried out using Mueller-Hinton agar (B.B.L.) and inocula were 10^4 bacteria.
(§5) Media M.I.C. values nX (c at least 200 max µg/ml) were calculated by the equation [formula] where si is the number of sensitive strains at the given concentration ci and st is the whole number of the sensitive strains.
(§6) Strains with M.I.C.>200µg/ml are regarded as resistant (R) and are expressed in percentage (%) by the equation : [formula] where N is the whole number of tested strains and N is t s the number of sensitive strains.
(§7) The following species of bacteria freshly isolated from various clinical specimens were tested: 16 strains of […], 10 strains of Staphylococcus spp, 15 strains of Streptococcus ovalis,3 strains of Streptococcus spp, 18 strains of Klebsiella pneumoniae,20 strains of Escherichia coli,ll strains of Salmonella spp (3 S.typhi,l S.paratyphi A,S.paratyphi B, 4 S enteritidis, 1 S.wien and S.infantis,42 strains of Proteus spp (28 P.mirabilis, 8 P.vulgaris,3 P.rettgeri,2 P.morganii and 1 Providencia ) and 8 strains of Pseudomonas aeruginosa.

Klebsiella pneumoniae = test: as above; assay type: cell-based; conditions: 18 strains, pH 7.2, reading 18 h after incubation at 37°C; for MIC: read-out: nX̄ = MIC mean values of sensitive strains
Description: as §1, §2, §3, §4, §5, §6, §7

Proteus spp = test: as above; assay type: cell-based; conditions: Proteus spp, 42 strains, pH 7.2, reading 18 h after incubation at 37°C; for MIC: read-out: nX̄ = MIC mean values of sensitive strains
Description: as §1, §2, §3, §4, §5, §6, §7

Pseudomonas aeruginosa = test: as above; assay type: cell-based; conditions: Pseudomonas aeruginosa, 8 strains, pH 7.2, reading 18 h after incubation at 37°C
Description: as §1, §2, §3, §4, §5, §6, §7

Salmonella spp = test: as above; assay type: cell-based; conditions: 11 strains, pH 7.2, reading 18 h after incubation at 37°C; for MIC: read-out: nX̄ = MIC mean values of sensitive strains
Description: as §1, §2, §3, §4, §5, §6, §7

Staphylococcus pyogenes = test: as above; assay type: cell-based; conditions: 16 strains, pH 7.2, reading 18 h after incubation at 37°C; for MIC: Staphylococcus aureus, read-out: nX̄ = MIC mean values of sensitive strains
Description: as §1, §2, §3, §4, §5, §6, §7

Staphylococcus spp = test: as above; assay type: cell-based; conditions: 10 strains, pH 7.2, reading 18 h after incubation at 37°C; for MIC: read-out: nX̄ = MIC mean values of sensitive strains
Description: as §1, §2, §3, §4, §5, §6, §7

Streptococcus ovalis = test: as above; assay type: cell-based; conditions: 15 strains, pH 7.2, reading 18 h after incubation at 37°C; for MIC: read-out: nX̄ = MIC mean values of sensitive strains
Description: as §1, §2, §3, §4, §5, §6, §7

Streptococcus spp = test: as above; assay type: cell-based; conditions: 3 strains, pH 7.2, reading 18 h after incubation at 37°C
Description: as §1, §2, §3, §4, §5, §6, §7

Gram-positive bacteria = test: In vitro antibacterial activity, summary for Gram-positive bacteria; assay type: cell-based, Staphylococcus and Streptococcus
Description: as §1, §2, §3, §4, §5, §6, §7

[1] = read-out: nX̄ = MIC mean values of sensitive strains

CCn1cc(C(=O)O)c(=O)c2ccc(C)nc21 [Nalidixic acid, nalidixic acid]
R% = percentage of resistant strains (Escherichia coli): 25% | MIC (Escherichia coli): 12.4 µg/mL (≈ 53.4 µM) | R% = percentage of resistant strains (Klebsiella pneumoniae): 22% | MIC (Klebsiella pneumoniae): 12.9 µg/mL (≈ 55.5 µM) | R% = percentage of resistant strains (Proteus spp): 33% | MIC (Proteus spp): 6.58 µg/mL (≈ 28.3 µM) | R% = percentage of resistant strains (Pseudomonas aeruginosa): 50% | MIC (Pseudomonas aeruginosa; [1]): 5.46 µg/mL (≈ 23.5 µM) | R% = percentage of resistant strains (Salmonella spp): 18% | MIC (Salmonella spp): 5.2 µg/mL (≈ 22.4 µM) | R% = percentage of resistant strains (Staphylococcus pyogenes): 94% | MIC (Staphylococcus pyogenes): 100 µg/mL (≈ 431 µM) | R% = percentage of resistant strains (Staphylococcus spp): 50% | MIC (Staphylococcus spp): 25.6 µg/mL (≈ 110 µM) | R% = percentage of resistant strains (Streptococcus ovalis): 93% | MIC (Streptococcus ovalis): 3.12 µg/mL (≈ 13.4 µM) | R% = percentage of resistant strains (Streptococcus spp): 100% | MIC (Streptococcus spp; read-out: range (MIC)): > 100 µg/mL

CCn1cc(C(=O)O)c(=O)c2cnc(N3CCNCC3)nc21 [Pipemidic acid, pipemidic acid]
R% = percentage of resistant strains (Escherichia coli): 30% | MIC (Escherichia coli): 4.12 µg/mL (≈ 13.6 µM) | R% = percentage of resistant strains (Klebsiella pneumoniae): 22% | MIC (Klebsiella pneumoniae): 3.79 µg/mL (≈ 12.5 µM) | R% = percentage of resistant strains (Proteus spp): 26% | MIC (Proteus spp): 10.8 µg/mL (≈ 35.6 µM) | R% = percentage of resistant strains (Pseudomonas aeruginosa): 0% | MIC (Pseudomonas aeruginosa; [1]): 12.3 µg/mL (≈ 40.6 µM) | MIC (Pseudomonas aeruginosa; read-out: range (MIC)): 1.56 to 25 µg/mL (≈ 5.14 to 82.4 µM) | R% = percentage of resistant strains (Salmonella spp): 9% | MIC (Salmonella spp): 17.6 µg/mL (≈ 58 µM) | R% = percentage of resistant strains (Staphylococcus pyogenes): 44% | MIC (Staphylococcus pyogenes): 36.4 µg/mL (≈ 120 µM) | R% = percentage of resistant strains (Staphylococcus spp): 30% | MIC (Staphylococcus spp): 39.1 µg/mL (≈ 129 µM) | R% = percentage of resistant strains (Streptococcus ovalis): 66% | MIC (Streptococcus ovalis): 65.6 µg/mL (≈ 216 µM) | MIC (Streptococcus spp; [1]): 75 µg/mL (≈ 247 µM) | MIC (Streptococcus spp; read-out: range (MIC)): 25 to 100 µg/mL (≈ 82.4 to 330 µM)

CCn1cc(C(=O)O)c(=O)c2cc(F)c(N3CCNCC3)nc21 [enoxacin]
R% (resistant strains) (Gram-positive bacteria): 0%

CCn1cc(C(=O)O)c(=O)c2cnc(N3CCCC3)nc21 [Piromidic acid, piromidic acid]
R% = percentage of resistant strains (Escherichia coli): 45% | MIC (Escherichia coli): 44.3 µg/mL (≈ 154 µM) | R% = percentage of resistant strains (Klebsiella pneumoniae): 61% | R% = percentage of resistant strains (Proteus spp): 76% | MIC (Proteus spp): 60 µg/mL (≈ 208 µM) | R% = percentage of resistant strains (Pseudomonas aeruginosa): 50% | MIC (Pseudomonas aeruginosa; [1]): 38.7 µg/mL (≈ 134 µM) | R% = percentage of resistant strains (Salmonella spp): 36% | MIC (Salmonella spp): 60.9 µg/mL (≈ 211 µM) | R% = percentage of resistant strains (Staphylococcus pyogenes): 69% | MIC (Staphylococcus pyogenes): 11.2 µg/mL (≈ 38.8 µM) | R% = percentage of resistant strains (Staphylococcus spp): 60% | MIC (Staphylococcus spp): 39.1 µg/mL (≈ 135 µM) | R% = percentage of resistant strains (Streptococcus ovalis): 87% | MIC (Streptococcus ovalis): 100 µg/mL (≈ 347 µM) | MIC (Streptococcus spp; [1]): 10.4 µg/mL (≈ 36.1 µM) | MIC (Streptococcus spp; read-out: range (MIC)): 6.25 to 12.5 µg/mL (≈ 21.7 to 43.4 µM)
